Results reported in patent US8993282B2, “Carotenoid fermentation method” (JX Nippon Oil & Energy Corporation, priority 2008, dated 2015).

Tested on: mutant Paracoccus sp. strain Y-1071
Test: Glutamate supplementation, 5 L fermentation tank culture, carotenoid by HPLC
Format: cell-based
Experimental: In the examples, carotenoids were quantified by high performance liquid chromatography (HPLC) as follows.
Two columns of Wakosil-II 5 SIL-100 (φ4.6×250 mm) (Wako Pure Chemical Industries, Ltd., Japan) were connected to each other for use as a column. Elution was performed by flowing an n-hexane-tetrahydrofuran-methanol mixed solution (40:20:1), which was a mobile phase, at a flow rate of 1.0 mL/minute at a constant temperature around room temperature. The measurement was performed as follows. Samples were each dissolved in tetrahydrofuran and then diluted 100-fold with the mobile phase. Each dilution was injected in a volume of 20 μL. The column eluate was detected at a wavelength of 470 nm. As a reference for quantification, astaxanthin (SIGMA, Cat. No. A9335) was used. The astaxanthin concentration of the reference solution was determined using the following equation after measuring the absorbance (A) of the reference solution at 477 nm and the area percentage % (B) of the astaxanthin peak at the time of HPLC analysis under the above conditions. Astaxanthin concentration (mg/L)=A/2150×B×100
A medium of the following composition (sucrose 20 g/L, filtered corn steep liquor 5 g/L, potassium dihydrogenphosphate 0.54 g/L, dipotassium hydrogenphosphate 12-hydrate 2.78 g/L, calcium chloride dihydrate 5.0 g/L, magnesium sulfate 7-hydrate 0.7 g/L, iron sulfate 7-hydrate 3.0 g/L, fatty acid-based defoaming agent 0.2 g/L, […]) was dispensed in 100 ml volumes into 500 mL cotton-plugged Erlenmeyer flasks and sterilized in an autoclave at 121° C. for 15 minutes to prepare a flask medium for seed culture in 2 flasks,
Next, a medium of the following composition (sucrose 40 g/L, corn steep liquor 30 g/L, ammonium sulfate 0.5 g/L, potassium dihydrogenphosphate 2.25 g/L, disodium hydrogenphosphate 12-hydrate 5.7 g/L, calcium chloride dihydrate 0.1 g/L, magnesium sulfate 7-hydrate 0.5 g/L, iron sulfate 7-hydrate 5 g/L, fatty acid-based defoaming agent 0.5 g/L) was dispensed in 2.0 L volumes into 5 L fermentation tanks (2 tanks in total). One of the fermentation tanks was supplemented with monosodium L-glutamate monohydrate to 50 mmol/L, while the other was supplemented with nothing as a control. These fermentation tanks were sterilized in an autoclave at 121° C. for 30 minutes,
A loopful of the mutant Paracoccus sp, strain Y-1071 selected in Example 3 was inoculated into the flask medium for seed culture and then cultured with rotary shaking at 28° C. for 2 days at 150 rpm. The resulting culture solution was then inoculated in 80 mL volumes into the individual fermentation tanks, followed by aerobic culture at 28° C. at an aeration volume of 1 vvm for 120 hours. […] during culture, the pH was continuously controlled with 15% aqueous ammonia. Glucose was added in an amount of 30 g on day 1, day 2 and day 3 of culture to prevent glucose depletion. The minimum number of agitation rotations was set to 100 rpm, and the number of agitation rotations was varied such that the dissolved oxygen concentration in the culture solution was maintained at 2 to 3 ppm. Bubbling was detected with a bubble sensor and suppressed by automatic addition of a fatty acid-based defoaming agent.
At the completion of culture, each culture solution was measured for its carotenoid concentration by HPLC.

[1] = Glutamic acid concentration 50 mmol/L, 120 hours

**Q.** With `N[C@@H](CCC(=O)O)C(=O)O` [Glutamic acid, glutamic acid] as the molecule, how does the “produced carotenoid concentration compared to the sample without glutamic acid” value (50 mmol/L) read?
**A.** higher produced carotenoid concentration

**Q.** And the 3-Hydroxyechinenone [1]?
**A.** 10 mg/L

**Q.** What about the Adonixanthin [1] of the same molecule?
**A.** 158 mg/L

**Q.** What about the Astaxanthin [1] of the same molecule?
**A.** 805 mg/L

**Q.** What about the Asteroidenone [1] of the same molecule?
**A.** 9 mg/L

**Q.** What about the Canthaxanthin [1] of the same molecule?
**A.** 101 mg/L

**Q.** And the Echinenone [1]?
**A.** 62 mg/L

**Q.** What about the Phoenicoxanthin [1] of the same molecule?
**A.** 217 mg/L

**Q.** What about the “Total carotenoid” value [1] of the same molecule?
**A.** 1458 mg/L

**Q.** And the Zeaxanthin [1]?
**A.** 3 mg/L

**Q.** What about the β-Carotene [1] of the same molecule?
**A.** 93 mg/L

**Q.** What about the β-Cryptoxanthin [1] of the same molecule?
**A.** 0.5 mg/L
